Assay results reported in US9637490B2, “Antifungal 5,6-dihydro-4-[(difluoroethyl)phenyl]-4H-pyrrolo[1,2-α][1,4]benzodiazepine and 4-(difluoroethyl)phenyl-6H-pyrrolo[1,2-α][1,4]benzodiazepine derivatives” (Janssen Pharmaceutica NV, priority 2010, dated 2017).

Key:
[1] = tested on: Scedosporium prolificans IHEM21157; assay: Antifungal activity in vitro (resazurin susceptibility screen), Inf. I; format: cell-based; conditions: Lomentospora prolificans, 37 °C, 48 hours, resa time 17 hours
Description: (§1) The standard susceptibility screen was performed in 96-well plates (U-bottom, Greiner Bio-One). Serial dilutions (2-fold or 4-fold) of 20 mM compound stock solutions were made in 100% DMSO, followed by an intermediate dilution step in water. These serial dilutions (10 μl) were then spotted onto test-plates that could be stored in the dark at 4° C. for a maximum period of 2 weeks. An adequate broad dose-range was included with 64 μM as the highest in-test concentration. The culture medium RPMI-1640 was supplemented with L-glutamine, 2% glucose and buffered with 3-(N-morpholino)-propanesulfonic acid (MOPS) at pH 7.0±0.1. The different fungal species/isolates (Table 3a) were cryopreserved and 1/1000 diluted in medium just prior to use. A standard inoculum of 200 μl containing 10^3 colony-forming unit (cfu) was then added to each well. A positive control (100% growth=fungal culture without antifungal) and a negative control (0% growth=RPMI-MOPS medium) were included on each plate. Optimal incubation time and temperature were dependent on the fungal species and vary from 24 h for yeasts (37° C.) to one week or more for dermatophytes (27° C.). Inhibition of fungal growth was measured after adding 10 μl of 0.005% (w/v) resazurin (Sigma Aldrich) to each well, based on the principle that living cells convert the non-fluorescent blue resazurin into the pink and fluorescent resorufin, allowing fluorimetric reading (λhd ex 550 nm and μem 590 nm) after an additional incubation period (‘resa’ time mentioned in Table 3a). [table]

Rhizopus oryzae IHEM5223 = assay: Antifungal activity in vitro (resazurin susceptibility screen), Inf. J; format: cell-based; conditions: 37 °C, 24 hours, resa time 6 hours
Description: as §1

[2] = tested on: Sporothrix schenkii B62482; assay: Antifungal activity in vitro (resazurin susceptibility screen), Inf. A; format: cell-based; conditions: 27 °C, 4 days, resa time 24 hours; for pIC50 Inf. A: Sporothrix schenkii B62482; for IC50: Sporothrix, B62482, Sporothrix schenkii B62482
Description: as §1

Microsporum canis B68128 = assay: Antifungal activity in vitro (resazurin susceptibility screen), Inf. B; format: cell-based; conditions: 27 °C, 9 days, resa time 24 hours; for pIC50 Inf. B: Microsporum canis B68128; for IC50: Microsporum canis, B68128, Microsporum canis B68128
Description: as §1

[3] = tested on: Trichophyton rubrum B68183; assay: Antifungal activity in vitro (resazurin susceptibility screen), Inf. C; format: cell-based; conditions: 27 °C, 7 days, resa time 24 hours; for pIC50 Inf. C: Trichophyton rubrum B68183; for IC50: Trichophyton rubrum, B68183, Trichophyton rubrum B68183
Description: as §1

[4] = tested on: Candida parapsilosis B66126; assay: Antifungal activity in vitro (resazurin susceptibility screen), Inf. D; format: cell-based; conditions: 37 °C, 24 hours, resa time 4 hours; for pIC50 Inf. D: Candida parapsilosis B66126; for IC50: Lodderomyces parapsilosis, B66126, Candida parapsilosis B66126
Description: as §1

[5] = tested on: Aspergillus fumigatus B42928; assay: Antifungal activity in vitro (resazurin susceptibility screen), Inf. E; format: cell-based; conditions: 27 °C, 48 hours, resa time 17 hours; for pIC50 Inf. E: Aspergillus fumigatus B42928; for IC50: Aspergillus fumigatus, B42928, Aspergillus fumigatus B42928
Description: as §1

[6] = tested on: Cryptococcus neoformans B66663; assay: Antifungal activity in vitro (resazurin susceptibility screen), Inf. F; format: cell-based; conditions: 37 °C, 24 hours, resa time 4 hours; for pIC50 Inf. F: Cryptococcus neoformans B66663; for IC50: Cryptococcus neoformans, B66663, Cryptococcus neoformans B66663
Description: as §1

[7] = tested on: Trichophyton mentagrophytes B70554; assay: Antifungal activity in vitro (resazurin susceptibility screen), Inf. G; format: cell-based; conditions: 27 °C, 7 days, resa time 24 hours; for pIC50 Inf. G: Trichophyton mentagrophytes B70554; for IC50: Trichophyton mentagrophytes, B70554, Trichophyton mentagrophytes B70554
Description: as §1

[8] = tested on: Scedosporium apiospermum IHEM3817; assay: Antifungal activity in vitro (resazurin susceptibility screen), Inf. H; format: cell-based; conditions: Scedosporium apiospermum IHEM3817; 37 °C, 48 hours, resa time 17 hours
Description: as §1

[9] = tested on: Rhizomucor miehei IHEM13391; assay: Antifungal activity in vitro (resazurin susceptibility screen), Inf. K; format: cell-based; conditions: Rhizomucor miehei IHEM13391; 37 °C, 48 hours, resa time 17 hours
Description: as §1

[10] = tested on: Mucor circinelloides IHEM21105; assay: Antifungal activity in vitro (resazurin susceptibility screen), Inf. L; format: cell-based; conditions: 27 °C, 48 hours, resa time 17 hours
Description: as §1

[11] = tested on: Microsporum canis (strain B68128); assay: Test D.4.1: activity against M. canis in guinea-pigs after oral treatment for 7 consecutive days; format: in vivo; design: key to semi-quantitative lesion score (mean): lesion score 0–3.5 by severity and size of lesion; conditions: oral 10 mg/kg once daily for 7 days
Description: The animals used in the tests described below were female Guinea pigs (Duncan-Hartley, Charles River, 200 g). These animals were kept in groups of 2 or 3 in cages of 56×33×20 cm^3. Food pellets (Carfil Quality) and water were available ad libitum in addition to a small daily amount of hay. Standard husbandry conditions were adopted: room temperature: 22° C., humidity level: 60% and a day-night cycle of 12 h.
For the preparation of inoculums, Microsporum canis (strain B68128) was grown on Sabouraud Dextrose Agar (SDA) plates for at least one week (7-10 days) before infection (27° C.). On the day of infection, spores were harvested by adding 4-5 ml sterile water on the plate and suspending the infectious material with a bend Pasteur pipette. From the recollected fluid, 10 μl was added to a KOVA counting chamber for determination of the number of spores in 1 square (average of several squares). If needed, additional dilutions (10× or 100×) were prepared. The average number of spores in one square×dilution×90.000=cfu/ml. An inoculum of 1×10^7 cfu/ml was prepared in a honey-water mixture (50%-50%).
In the tests described below, semi-quantitative lesion scores were given based on different clinical parameters. Scores between 0 and 3.5 were assigned based on the severity and size of the lesion. The criteria are listed in detail in Table 6.
The dorsum of the guinea pigs was shaved and further depilated for 3 minutes with Veet® creme before scarification with a steel brush. An inoculum of 10^6 cfu in 150 μl (75 mQ+75 μl honey) was applied to the wound using a micropipette with disposable tips. The animal was kept immobilized until the inoculum had completely dried. […]
vehicle: methocel 0.5%, Tween 80® (polysorbate 80), demineralised water reference compound: itraconazole at 6.25 mg/ml test compounds: prepared at 25 mg/ml, subsequently further diluted
Oral treatment (gavage 0.16 ml/100 g once daily) was started about 2 hours before infection and continued once daily for 7 consecutive days. The animals were weighed after 3 days of treatment to adjust for the dose.
Developments of lesions were evaluated following the semi-quantitative lesion scoring system (see Table 6) on days 3, 5, 7, 10, 12, 14, 17 and 20. The results are show in Table 7 (“DPI” means days post infection). Reported values in Table 7 are mean values.

CC(F)(F)c1ccc([C@H]2NCc3c(Cl)cccc3-n3cccc32)cc1 (single isomer, unassigned) [Compound 3]
IC50 [1]: 0.708 µM | IC50 (Rhizopus oryzae IHEM5223; Rhizopus arrhizus): > 64.6 µM

CC(F)(F)c1ccc(C2NCc3c(Cl)cccc3-n3cccc32)cc1.Cl (stereo not shown) [Compound 1, 7-chloro-4-[4-(1,1-difluoroethyl)phenyl]-5,6-dihydro-4H-pyrrolo[1,2-a][1,4]-benzodiazepine.HCl]
pIC50 Inf. A [2]: 4.68 | pIC50 Inf. B (Microsporum canis B68128): 6.45 | pIC50 Inf. C [3]: 6.91 | pIC50 Inf. D [4]: 5.70 | pIC50 Inf. E [5]: 6.72 | pIC50 Inf. F [6]: 5.30 | pIC50 Inf. G [7]: 6.89 | pIC50 Inf. H [8]: <4.19 | pIC50 Inf. J (Rhizopus oryzae IHEM5223): <4.19 | pIC50 Inf. K [9]: <4.19 | IC50 [10]: > 64.6 µM

CC(F)(F)c1ccc(C2NCc3cc(Cl)cc(Cl)c3-n3cccc32)cc1.Cl (stereo not shown) [Compound 5, 8,10-dichloro-4-[4-(1,1-difluoroethyl)phenyl]-5,6-dihydro-4H-pyrrolo[1,2-a][1,4]-benzodiazepine.HCl]
pIC50 Inf. A [2]: <4.19 | pIC50 Inf. B (Microsporum canis B68128): <4.19 | pIC50 Inf. C [3]: 4.22 | pIC50 Inf. D [4]: <4.19 | pIC50 Inf. E [5]: <4.19 | pIC50 Inf. F [6]: 4.46 | pIC50 Inf. G [7]: <4.19

CC(F)(F)c1ccc(C2NCc3c(ccc(Cl)c3Cl)-n3cccc32)cc1.Cl (stereo not shown) [Compound 7, 7,8-dichloro-4-[4-(1,1-difluoroethyl)phenyl]-5,6-dihydro-4H-pyrrolo[1,2-a][1,4]-benzodiazepine.HCl]
pIC50 Inf. A [2]: <4.19 | pIC50 Inf. B (Microsporum canis B68128): 5.40 | pIC50 Inf. C [3]: 5.40 | pIC50 Inf. D [4]: <4.19 | pIC50 Inf. E [5]: <4.19 | pIC50 Inf. F [6]: <4.19 | pIC50 Inf. G [7]: <4.19

CC(F)(F)c1ccc(C2=NCc3c(ccc(Cl)c3Cl)-n3cccc32)cc1 [Compound 10, 7,8-dichloro-4-[4-(1,1-difluoroethyl)phenyl]-6H-pyrrolo[1,2-a][1,4]benzodiazepine]
IC50 [2]: > 64.6 µM | IC50 (Microsporum canis B68128): > 64.6 µM | IC50 [3]: > 64.6 µM | IC50 [4]: > 64.6 µM | IC50 [5]: > 64.6 µM | IC50 [6]: > 64.6 µM | IC50 [7]: > 64.6 µM

CC(F)(F)c1ccc(C2NCc3c(Cl)ccc(Cl)c3-n3cccc32)cc1.Cl (stereo not shown) [Compound 11, 7,10-dichloro-4-[4-(1,1-difluoroethyl)phenyl]-5,6-dihydro-4H-pyrrolo[1,2-a][1,4]-benzodiazepine.HCl]
pIC50 Inf. A [2]: <4.19 | pIC50 Inf. B (Microsporum canis B68128): <4.19 | pIC50 Inf. C [3]: 4.86 | pIC50 Inf. D [4]: <4.19 | pIC50 Inf. E [5]: <4.19 | pIC50 Inf. F [6]: <4.19 | pIC50 Inf. G [7]: <4.19

CC(F)(F)c1ccc(C2NCc3c(Cl)cc(Cl)cc3-n3cccc32)cc1.Cl (stereo not shown) [Compound 13, 7,9-dichloro-4-[4-(1,1-difluoroethyl)phenyl]-5,6-dihydro-4H-pyrrolo[1,2-a][1,4]-benzodiazepine.HCl]
pIC50 Inf. A [2]: <4.19 | pIC50 Inf. B (Microsporum canis B68128): 4.23 | pIC50 Inf. C [3]: 5.70 | pIC50 Inf. D [4]: <4.19 | pIC50 Inf. E [5]: 4.81 | pIC50 Inf. F [6]: <4.19 | pIC50 Inf. G [7]: 5.14

CC(F)(F)c1cc(C2=NCc3ccc(Cl)cc3-n3cccc32)ccc1F [Compound 34, 9-chloro-4-[3-(1,1-difluoroethyl)-4-fluorophenyl]-6H-pyrrolo[1,2-a][1,4]benzodiazepine]
IC50 [2]: 7.94 µM | IC50 (Microsporum canis B68128): 8.13 µM | IC50 [3]: 7.94 µM | IC50 [4]: 2.95 µM | IC50 [5]: 7.94 µM | IC50 [6]: 5.75 µM | IC50 [7]: 8.13 µM

CC(F)(F)c1cc(C2=NCc3cccc(Cl)c3-n3cccc32)ccc1F [Compound 35, 10-chloro-4-[3-(1,1-difluoroethyl)-4-fluorophenyl]-6H-pyrrolo[1,2-a][1,4]-benzodiazepine]
IC50 [2]: 4.27 µM | IC50 (Microsporum canis B68128): 0.525 µM | IC50 [3]: 0.302 µM | IC50 [4]: 14.8 µM | IC50 [5]: 1.45 µM | IC50 [6]: 0.525 µM | IC50 [7]: 1.58 µM

CCC(C)n1ncn(-c2ccc(N3CCN(c4ccc(OCC5COC(Cn6cncn6)(c6ccc(Cl)cc6Cl)O5)cc4)CC3)cc2)c1=O (stereo not shown) [Itraconazole, reference compound]
semi-quantitative lesion score (mean) ([11]; 3 DPI): 0 | semi-quantitative lesion score (mean) ([11]; 5 DPI): 0 | semi-quantitative lesion score (mean) ([11]; 7 DPI): 0 | semi-quantitative lesion score (mean) ([11]; 10 DPI): 0 | semi-quantitative lesion score (mean) ([11]; 12 DPI): 0 | semi-quantitative lesion score (mean) ([11]; 14 DPI): 0 | semi-quantitative lesion score (mean) ([11]; 17 DPI): 0 | semi-quantitative lesion score (mean) ([11]; 20 DPI): 0
